What was measured:
[1] = tested on: HUVECs; assay: Cell viability assay (MTT assay), growth inhibition of HUVECs; assay type: cell-based, human
Description: Human umbilical vein endothelial cells (HUVECs; #8000) were purchased from the ScienCell Research Laboratories (San Diego, Calif., USA). The cells were seeded on gelatin-coated culture dishes and grown in the commercial endothelial cell medium (#1001; ScienCell) containing 5% fetal bovine serum (FBS; #0025; ScienCell), 30 μg/mL endothelial cell growth supplements (ECGS; #1052; ScienCell), 100 units/mL penicillin G, and 100 μg/mL streptomycin sulfates (#0503; ScienCell). Cells at passage 3-6 were used for experiments. Mouse Lewis lung carcinoma cell line 1 (LLC1; #60050) was bought from the Food Industry Research and Development Institute (Hsinchu, Taiwan) and cultured in Gibco® Dulbecco's modified Eagle's medium (#12800-017; Invitrogen, Carlsbad, Calif., USA) supplemented with 10% FBS (HyClone, Logan, Utah, USA), 4 mM L-glutamine, 1.5 g/L sodium bicarbonate, 100 units/mL penicillin G, and 100 μg/mL streptomycin. All cells were incubated in a humidified 5% CO2 atmosphere at 37° C. and culture media was changed every 2˜3 days.
The experiments were performed according to our previous study with minor modifications (Pan et al., 2010). Briefly, the cells (2×10^4 cells/well) were seeded and grown under normal culture medium for 24 h. After another 24 h of starvation with 0.5% FBS, the cells were treated with several concentrations (1, 2, 4, 8, and 16 μM) of the tested compounds for 24 h and then incubated with 5 mg/mL of MTT (3-[4,5-dimethyl thiazol-2-yl]-2,5-diphenyl tetrazolium bromide) for 2 h. After that, the cells were washed with 1×PBS and then dimethyl sulfoxide (DMSO) was added to each well. Absorbance values at 570 nm were determined for each well using 650 nm as the reference wavelength. The absorbance of the control group (treated with 5% or 10% FBS alone) was defined as 100%.

[2] = tested on: LLC1 lung carcinoma tumor; assay: Lewis lung carcinoma-bearing mouse model; assay type: in vivo; conditions: LLC1-bearing mice, 2-week treatment, 4 and 8 mg/kg/day intraperitoneal, FIG. 1A
Description: The experimental design and procedure according to the method reported by our previous study with minor modification (Liu et al., 2013). Briefly, male C57BL/6 mice (average of 8-week-old) were purchased from the BioLASCO (Taipei, Taiwan) and housed in a 12-h light/dark cycles with free access to food and water. All animal care followed the institutional animal ethical guidelines of ChinaMedical University (Taichung, Taiwan). After 1 week adaptation, the mice were divided randomly into three groups (n=6/group): Group 1 (control group; treatment with normal saline), Group 2 (treatment with 4 mg/kg body weight/day of […]), and Group 3 (treatment with 8 mg/kg body weight/day of […]). At first, the LLC1 lung cancer cells (6×10^5 cells in 100 μL of total volume) were injected subcutaneously into the back skin of mice to induce lung carcinoma xenografts. Two weeks later, the tumor-bearing mice began to receive the treatments according to experiment design (normal saline or […] with different dosages) by intraperitoneal injection once a day for two weeks. At the end of the study, the tumor masses were harvested to photograph and weighted.

[3] = tested on: HUVECs; assay: Matrigel cell invasion assay; assay type: cell-based, human; conditions: 0.5 μM, 16 h, FIG. 3B
Description: For evaluating cell migration, the HUVECs (1×10^5 cells/well) suspended within serum-free culture medium were seeded on inner surface of the upper chamber (ThinCerts™ Cell Culture Inserts with 8 μm pore size; #662638; Greiner Bio-One Inc., Monroe, N.C., USA) placed in the lower chamber (wells of a 24-well plate). For examining the cell invasion, the HUVECs were pre-mixed with equal volume of thawed Matrigel and rapidly seeded on the upper chamber. After 2 h for cell attachment, K20E at different concentrations (0.5, 1, and 2 μM) were added in the upper and the lower chambers, while 5% FBS as a chemoattractant was added in the lower chamber to facilitate cell migration or invasion. After 16 h incubation, the culture medium (or Matrigel) was removed clearly from inside the upper chamber, and the migrated or invasion cells attached on the outer surface of the upper chamber were fixed with 10% formaldehyde for 10 min at RT. The fixed cells were subsequently counterstained with hematoxylin. Relative cell number of each groups was counted from five random regions by light microscopy using a 40-fold magnification. The cell number of the control group (treated with 5% FBS alone) was defined as 100%.

COC(=O)/C=C/c1cc(OC(C)=O)c2c(c1)[C@H](C(=O)OC)[C@@H](c1ccc(OC(C)=O)c(OC(C)=O)c1)O2 [K20E]
GI50 ([1]; Homo sapiens, HUVEC, 24 h, MTT assay, 24 h treatment, 5% FBS-stimulated HUVECs): ~7.5 µM | 5% FBS-stimulated cell growth of the HUVECs ([1]; dose-dependent, FIG. 2A): markedly reduced | tumor mass [2]: dose-dependently reduced | 5% FBS-induced cell invasion of the HUVECs [3]: largely suppressed

Reference: patent US11066378B2, “Caffeic acid derivatives for anti-angiogenesis” (Taipei Medical University, priority 2015, dated 2021)
